Data reported in PubChem BioAssay AID489041 (Sanford-Burnham Center for Chemical Genomics, 2010).
Active and inactive are the calls of the source. No rule for the calls is given here.

Tested on: HEK-293T NF-kB luciferase reporter counterscreen, luminescence
Assay: NF-kB reporter inhibition in HEK-293T, dose response, counter-screen for T-cell antigen receptor NF-kB inhibitors, HEK-293T cells, luminescence (AID 489041)

| SMILES | IC50 |
| --- | --- |
| COc1ccc(Br)cc1/C(C)=N/NC1=NCCN1 | 9.87 µM |
| CCCCCC(=O)N[C@@H](c1ccccc1)[C@@H](O)C(=O)O[C@H]1C[C@@]2(O)[C@@H](OC(=O)c3ccccc3)C3[C@](C)(C(=O)[C@H](OC(C)=O)C(=C1C)C2(C)C)[C@@H](O)C[C@H]1OC[C@@]31OC(C)=O (stereo partly specified) | > 80 µM (inactive) |
| CCN(CC)c1ccc(NC(=O)c2cc(OC)cc(OC)c2)c(C)c1 | 6 µM |
| O=C(c1cn(Cc2ccccc2)nc1-c1ccccc1)N1CCN(c2ccccn2)CC1 | > 80 µM (inactive) |
| COC(=O)[C@]12OC[C@]34C([C@@H](O)[C@@H]1O)[C@]1(C)CC(=O)C(O)=C(C)[C@@H]1C[C@H]3OC(=O)[C@H](O)[C@@H]24 (stereo partly specified) | 0.548 µM |
| O=[N+]([O-])c1ccc(O)c(/C=N/Nc2ccc(Cl)nn2)c1 | > 80 µM (inactive) |
| CCCC(=O)NC(c1ccc(N(C)C)cc1)c1ccc2cccnc2c1O (stereo unspecified) | > 80 µM (inactive) |
| COc1ccc(Nc2ncnc3ccc(Br)cc23)c(OC)c1 | 12 µM |
| Cc1ccc2[nH]c(-c3cccc(F)c3)cc(=O)c2c1 | > 80 µM (inactive) |
| O=C(COc1ccc2c(-c3ccccc3)cc(=O)oc2c1)Nc1cccnc1 | 0.26 µM |
| CC1=C(C(=O)OCc2ccc3c(c2)OCO3)C(c2ccc(Cl)cc2)NC(=O)N1 (stereo unspecified) | < 0.16 µM |
| O=[N+]([O-])c1nn(-c2ccc3c(c2)OCCO3)n(O)c1=Nc1ccccc1 | 12.4 µM |
| O=Cc1cc2ccccc2nc1SCc1ccc(Cl)c(Cl)c1 | 5.54 µM |
| CCCCCn1c2c(c(=N)c3ccccc31)CCC2 | 1.75 µM |
| Cc1ccc2c(c1)sc(-c1ccc(N(C)C)cc1)[n+]2C | 0.87 µM |
| CC(C)Oc1ccccc1C1CC(=O)Nc2cc3c(cc21)OCCO3 (stereo unspecified) | 2.69 µM |
| COC(=O)Nc1ccc(S(=O)(=O)N2CCCc3ccccc32)cc1 | 11.9 µM |
| COc1ccccc1NC(=O)Cn1nnc(C(=O)NCc2cccs2)c1N | 1.93 µM |
| O=C1CC(c2cc(Br)ccc2F)c2cc3c(cc2N1)CCC3 (stereo unspecified) | > 80 µM (inactive) |
| CCOCCOC(=O)c1[nH]c2c(c1C)C(=O)CC(c1ccccc1)C2 (stereo unspecified) | 3.05 µM |
| Cc1nn(C)c(C)c1CN(Cc1nc(CCC(C)C)no1)C(C)C | 11 µM |
| CC(=O)N1c2ccc(S(=O)(=O)N3CCC(C(=O)Nc4cccc(C)n4)CC3)cc2CC1C (stereo unspecified) | 5.57 µM |
| CC1=C([N+](=O)[O-])C(c2ccccc2)C2=C(N1)c1ccccc1C2=O (stereo unspecified) | 8.44 µM |
| Cc1cc(NC(=O)CSc2nc3c(sc4ccccc43)c(=O)n2CCCN2CCOCC2)n[nH]1 | 1.02 µM |
| Cn1c(SC2=CS(=O)(=O)c3ccccc32)nc2ccccc21 | 12.2 µM |
| Cc1ccc(N(C)S(=O)(=O)c2ccc(-c3cnc(C4CC4)o3)cc2)cc1 | 4.53 µM |

| SMILES | IC50 |
| --- | --- |
| CCOc1ccccc1NC(=O)CN(c1ccc(OC)cc1)S(=O)(=O)c1c(C)noc1C | 16.9 µM |
| C/C=C(\C)C(=O)N[C@@H](c1ccccc1)[C@@H](O)C(=O)O[C@H]1C[C@@]2(O)[C@@H](OC(=O)c3ccccc3)C3[C@](C)(C(=O)[C@H](OC(C)=O)C(=C1C)C2(C)C)[C@H](O)C[C@H]1OC[C@@]31OC(C)=O (stereo partly specified) | > 80 µM (inactive) |
| C=CCNC(=S)N/N=C(\C)c1ccccn1 | > 80 µM (inactive) |
| O=C(Nc1ccc(N2CCN(C(=O)c3ccc(Cl)cc3)CC2)cc1)c1ccc2c(c1)OCCO2 | 3.1 µM |
| CCOC(=O)c1ccccc1NC(=O)Cn1c(-c2nonc2N)nc2ccccc21 | 0.47 µM |
| CCCCS(=O)(=O)/C=C\C=C/S(=O)(=O)CCCC | 20.2 µM (inactive) |
| Cc1cc(=O)oc2cc(OCC3CC(c4ccccc4Cl)=NO3)ccc12 (stereo unspecified) | 5.52 µM |
| COc1cccc(CN(C)C(=O)c2cc(COc3ccc4ncccc4c3)on2)c1 | 1.9 µM |
| COc1ccc(-c2ccc3oc(-c4ccc(OC)cc4)c(C#CCO)c3c2)cc1 | 14.2 µM |
| COC(=O)c1c(NC(=O)c2ccc([N+](=O)[O-])o2)sc2c1CCN(C(C)C)C2 | 51.8 µM (inactive) |
| CCN(CC)c1ccc(/C=N/NC(=O)c2cccc(S(=O)(=O)Nc3ccccc3OC)c2)c(O)c1 | 0.23 µM |
| O=S1(=O)C=C(Sc2nc3cc(Cl)ccc3o2)c2ccccc21 | 20.8 µM (inactive) |
| CCCC(=O)NC(c1ccc(OC)cc1)c1ccc2cccnc2c1O (stereo unspecified) | > 80 µM (inactive) |
| COc1ccc(C2=Nn3c([n+](C)c4ccccc43)SC2)cc1 | 2.63 µM |
| CCOC(=O)N=Nc1c2ccccc2c2nc3no[nH]c3nc12 | 0.52 µM |
| O=C(Nc1nc2ccc(S(=O)(=O)N3CCCC3)cc2s1)C1CCCCC1 | 2.8 µM |
| CCCCOc1ccc(Br)cc1/C(C)=N/NC1=NCCN1 | 6.14 µM |
| COc1cc2c(c(OC)c1OC)-c1ccc(OC)c(=O)cc1[C@@H](NC(C)=O)CC2 | < 0.16 µM |
| O=C(Nc1ccncc1)c1ccc(Cl)c(S(=O)(=O)N2CCc3ccccc32)c1 | 1.49 µM |
| CCOC(=O)CSC1=C(C#N)C(c2ccc(C)s2)CC(=O)N1 (stereo unspecified) | 3.78 µM |
| COc1cc(CC(=O)OCC(=O)c2ccc3c(c2)OCCO3)cc(OC)c1OC | 0.67 µM |
| CCOC(=O)C(C)Oc1cccc2c(=O)n(CC(=O)NCc3ccc4c(c3)OCO4)ccc12 (stereo unspecified) | 2.23 µM |
| COc1ccc(/C=c2/sc3n(c2=O)C(c2ccccc2OC)C2=C(N=3)c3ccccc3CC2)cc1O (stereo unspecified) | > 80 µM (inactive) |
| CCS(=O)(=O)c1ncc(Cl)c(C(=O)Nc2ccc(S(=O)(=O)N(C)c3ccccc3)cc2)n1 | 20.2 µM (inactive) |
| Cn1nc(-c2ccccn2)nc2c(=O)n(C)c(=O)nc1-2 | 5.68 µM |
| O=C(Nc1ccc(Cl)c(S(=O)(=O)N2CCOCC2)c1)c1ccc(OCC2CCCO2)cc1 (stereo unspecified) | 3.14 µM |

| SMILES | IC50 |
| --- | --- |
| Cc1ccc2cccc(NS(=O)(=O)c3ccccc3)c2n1 | > 80 µM (inactive) |
| Cc1c(C)c2cccnc2c2ncccc12 | 23.1 µM (inactive) |
| CCOC(=O)c1ccccc1NS(=O)(=O)c1ccc(OCC)cc1 | 17.7 µM |
| O=C(Nc1cccc(C(F)(F)F)c1)c1sc(Cl)nc1C(F)(F)F | 40.6 µM (inactive) |
| Cc1c(C(=O)N2CCOCC2)[nH]c2c1C(=O)CC(c1ccccc1Cl)C2 (stereo unspecified) | 13.8 µM |
| O=C(NCCc1ccccc1)c1ccc2c(c1)OCCO2 | 1.3 µM |
| CCCCCCCCC[n+]1cccc2c3ccccc3ccc21 | 0.55 µM |
| Clc1ccc(CSc2nncn2-c2ccc3c(c2)OCCO3)cc1 | 13.8 µM |
| COC(=O)CCC(=O)NC(=S)Nc1sc(C)c(C)c1C(N)=O | 0.74 µM |
| CCCSc1nnc(Sc2nnnn2-c2ccccc2)s1 | 9.43 µM |
| C[C@@H]1O[C@@H](O[C@H]2C[C@@H](O)[C@]3(CO)[C@@H]4C(CC[C@]3(O)C2)[C@@]2(O)CC[C@H](C3COC(=O)C3)[C@@]2(C)C[C@H]4O)[C@H](O)[C@H](O)[C@H]1O (stereo partly specified) | 0.69 µM |
| Cc1cccc(N2CCN(C(=O)c3ccc4[nH]c(C)c(C)c4c3)CC2)c1C | 19.2 µM |
| COc1ccc(CS(=O)(=O)/C(Cl)=C(/Cl)C(=O)Nc2ccc(OC)nc2)cc1 | 3.46 µM |
| Cc1cccc(N2CCN(C(=O)c3c(-c4ccccc4Cl)noc3C)CC2)c1C | 6.03 µM |
| COc1cc2nc(NC(=O)c3ccco3)sc(=O)c2cc1OC | 66.7 µM (inactive) |
| COc1ccccc1C(=O)Nc1nc2ccccc2s1 | 0.8 µM |
| CCOc1ccccc1NS(=O)(=O)c1ccc(-c2cnc(C3CC3)o2)cc1 | 1.79 µM |
| CCCc1cc(C(=O)N/N=C/c2ccc(CC)s2)c2ccccc2n1 | 2.47 µM |
| CC(Nc1ncnc2ccccc12)c1ccccc1 (stereo unspecified) | 3.28 µM |
| O=C(N/N=C\c1c(O)ccc2ccccc12)c1cncc(Br)c1 | 11.2 µM |
| COc1ccc(-c2c(C#N)c(N)nc3c2CCc2ccccc2-3)cc1OC | 8.28 µM |
| CCOC(=O)C1CCN(S(=O)(=O)c2c(Cl)ccc3nonc23)CC1 | 10.7 µM |
| COc1ccccc1N=C(C)C1=C(O)CC(c2ccccc2)CC1=O (stereo unspecified) | 0.78 µM |
| c1ccc(-c2cccc(-c3ccccn3)n2)nc1 | > 80 µM (inactive) |
| CCOC(=O)c1[nH]c2c(c1C)C(=O)CC(c1ccc(F)cc1)C2 (stereo unspecified) | > 80 µM (inactive) |
| CSc1nccc(-c2nn(-c3ccc(C)cc3)ccc2=O)n1 | 6.22 µM |

| SMILES | IC50 |
| --- | --- |
| C#Cc1ccc([C@@H]2C=C(C(=O)N3CCN(Cc4ccccc4)CC3)O[C@H](OCCCCO)C2)cc1 | 2.32 µM |
| COc1ccc(C(=O)N2CCN(c3ccc([N+](=O)[O-])c(NCCc4ccc(OC)c(OC)c4)c3)CC2)cc1 | 0.31 µM |
| COc1ccc2c(c1)/C(=C/c1cnc[nH]1)C(=O)N2 | 0.7 µM |
| CCCOc1ccc(/C=N/Nc2cc(N3CCOCC3)ncn2)c(O)c1 | 0.38 µM |
| COc1cccc(-c2cc(=O)c3cc(NC(=O)c4ccccc4)ccc3[nH]2)c1 | > 80 µM (inactive) |
| CCOC(=O)N1CCN(C(=O)C2CCCN(Cc3nc(-c4ccc(Cl)cc4)oc3C)C2)CC1 (stereo unspecified) | 3 µM |
| Cc1cccc(N2CCN(C(=O)c3ccc(CS(=O)(=O)c4ccccc4C)o3)CC2C)c1 (stereo unspecified) | 2.34 µM |
| O=C(NC(Nc1nc2ccc([N+](=O)[O-])cc2s1)(C(F)(F)F)C(F)(F)F)c1ccccc1 | > 80 µM (inactive) |
| Cc1ccc(C(=O)c2cc([N+](=O)[O-])ccc2N2CCOCC2)c(C)c1 | 4.92 µM |
| COc1ccc(C(C(=O)NC2CCCCC2)N(C(=O)CCl)c2ccc(C)cc2)cc1 (stereo unspecified) | > 80 µM (inactive) |
| O=C(Nc1ccccc1Cl)/C(Cl)=C(\Cl)S(=O)c1ccccc1 (stereo unspecified) | 9.87 µM |
| COc1cccc(OC)c1C1=NCC(=O)Nc2c1oc1ccc(Br)cc21 | 3.28 µM |
| Cc1cc(C)c(S(=O)(=O)Nc2ccc3c4c(cccc24)CC3)c(C)c1 | 1.73 µM |
| COC(=O)c1ccc(C)c(NS(=O)(=O)c2ccc3c(c2)OCCO3)c1 | 20.1 µM (inactive) |
| Nc1nc(-c2ccccc2)cc(N2CCCCC2)n1 | 2.23 µM |
| CCOc1ccccc1C1CC(=O)Nc2cc3c(cc21)OCCO3 (stereo unspecified) | 4.19 µM |
| Cc1ccc(O)c(NC(=O)c2cc(-c3ccco3)on2)c1 | > 80 µM (inactive) |
| CCOC(=O)c1[nH]c(C)c(C(=O)Nc2ccccc2C)c1C | 67.3 µM (inactive) |
| Cc1ccc(S(=O)(=O)Cc2ccc(C(=O)N3CCN(c4cccc(C)c4C)CC3)o2)cc1 | 3.22 µM |
| O=C(OCCN1C(=O)c2cccc3c(N4CCOCC4)ccc(c23)C1=O)c1ccc(Cl)cc1 | 7.66 µM |
| CC[C@]1(O)CC2CN(CCc3c([nH]c4ccccc34)[C@@](C(=O)OC)(c3cc4c(cc3OC)N(C=O)[C@H]3[C@@](O)(C(=O)OC)[C@H](OC(C)=O)[C@]5(CC)C=CCN6CC[C@]43[C@@H]65)C2)C1 (stereo partly specified) | 3.12 µM |
| CCOc1cccc(-c2nnc3n2N=C(c2cc(OC)ccc2OC)CS3)c1 | 4.82 µM |
| CCOc1ccccc1C(=O)N1CCN(c2cccc(Cl)c2)CC1 | 2.28 µM |
